Data taken from PMC8742957, “Functional signaling test identifies HER2 negative breast cancer patients who may benefit from c-Met and pan-HER combination therapy” (Cell Communication and Signaling : CCS, 2022).
Like-named read-outs stand apart in the source and are kept apart here.

Key:
[1] = tested on: HER-family receptors; test: CELsignia real-time live cell IC50 titration of pan-HER inhibitors against NRG1b/EGF stimulation, primary breast cancer cells; type: cell-based, human; conditions: six primary breast cancer cell samples with hyperactive HER- and c-Met signaling; inhibitor 18 h before NRG1b/EGF; Poziotinib three, Tucatinib five samples
Method: Owing to limited numbers of non-passaged or low passaged primary cells, 1000-fold, five-point dose response for antagonists to HER-family and c-Met receptors was performed for each corresponding agonist stimulus (i.e. NRG1b/EGF for HER-family activation and HGF for c-Met activation) in a live-cell CELsignia assay and the observed values were averaged. Drug additions were made 18 h prior to agonist addition. The measurand recording period of four hours began after the agonist addition. Response was plotted as a percent of the maximum response to the agonist observed in the absence of any antagonist using GraphPad Prism software and IC50 values were derived using non-linear regression.
A representative dose–response curve of cells from patient R66 to stimulation with NRG1b/EGF following pre-treatment with the indicated antagonists is shown in Fig. 4a. A total of six primary cell lines isolated from as many patients were included in this IC50 titration test and the average values are summarized in Table 1. The IC50 values for pan-HER antagonists against NRG1b/EGF stimulation determined from our real-time live cell assay align with what was previously reported in cell-free assays.

[2] = target: T1, c-Met (Homo sapiens, UniProt P08581); test: Cross-talk analysis, inhibition of HGF signal in patient primary tumor cells (CELsignia); conditions: HGF 50 pM, Erlotinib 500 nM, Tucatinib 250 nM, Tepotinib 50 nM, four-hour period
[3] = tested on: MDA-MB-231 cells; test: Flow cytometry of cell toxicity markers, MDA-MB-231; type: cell-based, human; conditions: 250 nM, singly or in combination, 16h
Method: (§1) For analysis of cell toxicity, single cell suspensions were stained with TMRE (200 nM for 30 min), washed with FACS buffer, and stained with Annexin V-AlexaFluor647 (Biolegend; San Diego, CA) following the manufacturers’ instructions. The TMRE/Annexin V stained cells were resuspended in FACS buffer containing Sytox Blue (Thermo Fisher; Waltham, MA) and analyzed on a Novocyte 3000 FACS instrument and NovoExpress software (Agilent; Santa Clara, CA). For analysis of intracellular phosphoproteins by FACS, cells were stained using a Live/Dead fixable dye (Zombie NIR; BioLegend), fixed using 1.6% paraformaldehyde, permeabilized with cold-methanol, and then stained using antibodies towards AKT-pS473 (Cell Signaling Technology; Danvers, MA) and FAK-pS910 (BD Biosciences) (Table S2) prior to FACS analysis.
(§2) Figure S8. CELsignia test is more sensitive and rapid for detecting anti-cancer drug efficacy compared to biological correlates – Normal signaling cell line, MDA-MB-231. MDA-MB-231 cells were normal signaling for HER and c-Met by the CELsignia test. To test flow cytometry markers for correlation a test was setup following the dose and time parameters used for the CELsignia test. The cells were seeded in collagen-fibrinogen (CF) coated culture plates and treated […]
indicated. Cells were harvested and then analyzed by flow cytometry for the markers shown following a period of 16h drug treatment. […]
these drugs according to the Sytox blue marker.
(§3) (1 picture or pasted object on this page, not shown here)
Figure S10. CELsignia test is more sensitive and rapid for detecting anti-cancer drug efficacy compared to biological correlates – Normal signaling cell line, MDA-MB-231 continued.
MDA-MB-231 cells were seeded in collagen-fibrinogen (CF) coated culture plates and treated 6h […]
Cells were harvested and then analyzed by flow cytometry for the markers shown following a period of 16h drug treatment. […]
according to annexin V marker.
Figure S12. CELsignia test is more sensitive and rapid for detecting anti-cancer drug efficacy […]
according to TMRE marker.

[4] = tested on: AKT-pS473 and FAK-pS910 in HCC1954 cells; test: Intracellular phospho-flow cytometry of AKT-pS473 and FAK-pS910, HCC1954; type: cell-based, human; conditions: 16 h
[5] = tested on: BT-20 cells; test: Flow cytometry of cell toxicity markers, BT-20; type: cell-based, human; conditions: 250 nM, singly or in combination, 16h
Method: as §1
as §2, with “S7.” for “S8.”, “BT-20. BT-20” for “MDA-MB-231. MDA-MB-231”, “cells” for “cells were seeded in collagen-fibrinogen (CF) coated culture plates and treated”
(250 nM) and neratinib (250 nM), either singly or in combination, as indicated. Cells were harvested and then analyzed by flow cytometry for the markers shown following a period of 16h […]
as §3
Figure S9. CELsignia test is more sensitive and rapid for detecting anti-cancer drug efficacy compared to biological correlates – Normal signaling cell line, BT20 continued. BT-20 cells […]
Figure S11. CELsignia test is more sensitive and rapid for detecting anti-cancer drug efficacy compared to biological correlates – Normal signaling cell line, BT-20 continued. BT-20 cells

[6] = tested on: HER/c-met signaling in HCC1954 cells; test: CELsignia analysis of HCC1954 cells, antagonists against cocktail of agonists (NRG, EGF, HGF); type: cell-based, human; conditions: cocktail NRG 3 nM, EGF 0.3 nM, HGF 50 pM, errors are standard deviation
Method: During the combined drug testing, we investigated the benefit of targeting HER1 specifically in combination with c-Met.
2.5 3x GF (N RG 3 n M, E G F 0. 3 nM , HG F 50 p M)
Fig. S6: Impedance time course example for antagonist effects on a cocktail of agonists
(NRG, EGF and HGF) for HCC1954 used to derive data in Table 7 (N of 4 experiments).
Also included on the plot timecourse are cells only (HSSM, red line) untreated by agonist

[7] = tested on: A549 cells; test: Flow cytometry of cell toxicity markers, A549, 72 h; type: cell-based, human; conditions: neratinib and/or tepotinib
Method: For analysis of cell toxicity, single cell suspensions were stained with TMRE (200 nM for 30 min), washed with FACS buffer, and stained with Annexin V-AlexaFluor647 (Biolegend; San Diego, CA) following the manufacturers’ instructions. The TMRE/Annexin V stained cells were resuspended in FACS buffer containing Sytox Blue (Thermo Fisher; Waltham, MA) and analyzed on a Novocyte 3000 FACS instrument and NovoExpress software (Agilent; Santa Clara, CA). […]
marker resistance to prolonged drug treatment – Normal signaling cell line, A549. A549 cell […]
A549 cells were treated with neratinib […]
(§4) cytometry for cell death using Sytox Blue, apoptosis marker annexin V, and mitochondrial potential by TMRE staining. Flow cytometry histogram plots are representative of at least two […]
(§5) according to these markers.
as §3

[8] = tested on: HER-family and c-Met receptors; test: CELsignia inhibition of combined NRG/EGF/HGF cocktail signal, patient breast cancer cells; type: cell-based, human; conditions: patient C135; Neratinib 500 nM, tepotinib 50 nM; compared to growth factor only well
Method: To simulate this multiplexed perturbant condition and test the ability of the different targeted drugs to attenuate abnormal signaling from multiplexed agonists, patient breast cancer cells were stimulated with a growth factor cocktail of EGF, NRG1b, and HGF (N/E/H) to simultaneously initiate signaling via the HER-family and c-Met receptors. […] Cell index signaling units were calculated relative to the baseline values obtained from cells that were not treated with either agonists or antagonists.

[9] = tested on: HER-family (EGF stimulation); test: Impedance test IC50 with single growth factor EGF (set-up of median effects, HCC1954); type: cell-based, human; conditions: neratinib + EGF
Excerpt: Fig. S5: Median effects plots.
EGF on HCC1954. When CI>1,
and Talalay. CI<1 is indicative of synergy. C) Antagonist median effects plot of patient sample
indicative of additivity; CI<1 is indicative of synergy.

[10] = tested on: BT-474 cells; test: Flow cytometry of cell toxicity markers, BT-474, 72 h; type: cell-based, human; conditions: neratinib and/or tepotinib
Method: as §1, with “analysis. […]” for “analysis.”
marker resistance to prolonged drug treatment – Normal signaling cell line, BT474. BT-474 […]
These cell lines were treated with neratinib […]
as §4, §5, §3

[11] = tested on: HCC1954 xenograft; conditions: NSG mice; for Tumor reduction, drug arm versus control: oral gavage QD 21 doses, Neratinib 40, Tepotinib 50, Erlotinib 25 mg/kg
Method: A selection of an appropriate cell line was necessary owing greatly to the limited commercially available tumorigenic breast cancer mouse models with the abnormal signaling function of interest to this study. Female NSG (NOD SCID gamma; NOD.Cg-Prkdc^scid Il2rg^tm1Wjl/SzJ) mice were procured from Jackson Labs (Bar Harbor, Maine, USA). The mice were injected in their fat pad with HCC1954 cells dissolved in 150 µL of a 50% Matrigel solution. Tumors were allowed to form until they reached a minimum average size of 150 mm^3. At this time, the tumor bearing cohort was divided up into 10-mouse treatment groups of uniform distribution of tumor sizes, just prior to initiating treatment. Tumor size and body weights were measured a minimum of twice per week. Upon completion of the study period, the mice were euthanized for necropsy and sample/tissue collection at the study endpoint or when tumor size reached ≥ 2 cm^3.
Female NSG mice, 4–5 weeks old, were injected subcutaneously in the left mammary fat pad with two million HCC1954 cells. After the average tumor volume reached 150 mm^3 the mice were randomly assigned into six cohorts of 10 mice each (n = 10). Each of the experimental mice were dosed by oral gavage with 100 µL dosing solution daily (QD) for 21 days (21 doses). […] In order to determine the effects of the pan-HER and c-Met antagonists on tumor size, the tumor volume (in mm^3) was measured and plotted as shown in Fig. 8b.

[12] = target: T1, c-Met; test: cell-based
[13] = read-out: Percent inhibition of growth factor signal, patient C753
[14] = read-out: Percent inhibition of growth factor signal, patient C1061
[15] = read-out: Percent inhibition of growth factor signal, patient R66

T1 sequence (P08581 25-1390): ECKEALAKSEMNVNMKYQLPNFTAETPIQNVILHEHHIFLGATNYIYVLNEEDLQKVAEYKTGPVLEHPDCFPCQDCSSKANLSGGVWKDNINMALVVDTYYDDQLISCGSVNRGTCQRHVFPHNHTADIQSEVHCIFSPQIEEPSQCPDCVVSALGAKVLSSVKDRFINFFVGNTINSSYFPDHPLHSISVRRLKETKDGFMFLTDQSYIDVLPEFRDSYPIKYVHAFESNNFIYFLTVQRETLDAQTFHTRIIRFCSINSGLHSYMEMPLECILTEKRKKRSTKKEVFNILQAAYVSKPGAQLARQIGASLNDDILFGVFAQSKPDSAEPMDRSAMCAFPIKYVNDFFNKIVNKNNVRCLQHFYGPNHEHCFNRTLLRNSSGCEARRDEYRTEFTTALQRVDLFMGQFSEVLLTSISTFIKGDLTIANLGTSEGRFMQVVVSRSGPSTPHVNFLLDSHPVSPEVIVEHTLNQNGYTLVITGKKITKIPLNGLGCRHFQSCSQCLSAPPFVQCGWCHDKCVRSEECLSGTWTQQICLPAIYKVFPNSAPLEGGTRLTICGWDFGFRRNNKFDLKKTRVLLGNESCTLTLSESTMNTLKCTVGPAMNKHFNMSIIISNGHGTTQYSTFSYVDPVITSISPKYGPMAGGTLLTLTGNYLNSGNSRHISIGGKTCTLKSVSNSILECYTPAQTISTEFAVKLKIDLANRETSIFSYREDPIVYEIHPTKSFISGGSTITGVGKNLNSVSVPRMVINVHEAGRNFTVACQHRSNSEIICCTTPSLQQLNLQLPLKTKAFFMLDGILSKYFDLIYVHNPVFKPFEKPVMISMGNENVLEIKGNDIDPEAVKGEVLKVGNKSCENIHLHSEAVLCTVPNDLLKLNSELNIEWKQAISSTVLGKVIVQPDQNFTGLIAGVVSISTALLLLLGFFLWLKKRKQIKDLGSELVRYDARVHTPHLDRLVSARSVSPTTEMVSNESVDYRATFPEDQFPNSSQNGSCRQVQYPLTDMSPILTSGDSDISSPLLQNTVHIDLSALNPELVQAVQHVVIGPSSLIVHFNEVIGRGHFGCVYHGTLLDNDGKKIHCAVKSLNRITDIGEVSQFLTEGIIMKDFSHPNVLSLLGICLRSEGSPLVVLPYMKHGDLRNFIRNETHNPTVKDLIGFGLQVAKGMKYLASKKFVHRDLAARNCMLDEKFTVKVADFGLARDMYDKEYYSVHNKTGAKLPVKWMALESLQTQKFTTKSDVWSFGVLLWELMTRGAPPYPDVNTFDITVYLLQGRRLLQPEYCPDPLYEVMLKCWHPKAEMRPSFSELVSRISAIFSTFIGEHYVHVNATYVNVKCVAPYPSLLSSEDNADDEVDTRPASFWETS

Cc1cc(Nc2ncnc3ccc(NC4=NC(C)(C)CO4)cc23)ccc1Oc1ccn2ncnc2c1 [Tucatinib]
IC50 [1]: 0.333 µM | inhibition at 0.25 µM [2, 13]: -6% | inhibition at 0.25 µM [2, 14]: -13% | inhibition at 0.25 µM [2, 15]: 25%

CNC(=O)CN1CCC(Oc2cc3c(Nc4cccc(Cl)c4F)ncnc3cc2OC)CC1 [Sapitinib]
IC50 [1]: 0.0413 µM

C=CC(=O)N1CCC[C@@H](n2nc(-c3ccc(Oc4ccccc4)cc3)c3c(N)ncnc32)C1 [Ibrutinib]
IC50 [1]: 0.0131 µM

CCOc1cc2ncc(C#N)c(Nc3ccc(OCc4ccccn4)c(Cl)c3)c2cc1NC(=O)/C=C/CN(C)C [Neratinib]
Response according to TMRE marker [3]: do not respond | Response according to annexin V marker [3]: do not respond | Response according to the Sytox blue marker [3]: do not respond | distribution of pFAK high cells [4]: not significantly altered | frequency of pAKT high cells ([4]; singly and in combination with tepotinib): dose-dependent decline | Response according to TMRE marker [5]: do not respond | Response according to annexin V marker [5]: do not respond | Response according to the Sytox blue marker [5]: do not respond | HER/c-met inhibition (%) [6]: 14.6 ± 29.6 (n = 4) % | Response according to Sytox Blue, annexin V and TMRE markers [7]: do not respond | Order of efficacy against response to simultaneous NRG, EGF and HGF [8]: more efficacious | IC50 [9]: 0.015 µM | IC50 [1]: 0.00481 µM | Response according to Sytox Blue, annexin V and TMRE markers [10]: do not respond | Tumor reduction, drug arm versus control [11]: 54% (p = 0.003) | Tumor reduction, drug arm versus control ([11]; listed as neratinib): 54%

C[C@@H](c1ccc2nccn2c1)n1nnc2ncc(-c3cnn(C)c3)nc21 [Savolitinib]
IC50 [12]: 0.00356 µM

C=CC(=O)N1CCC(Oc2cc3c(Nc4ccc(Cl)c(Cl)c4F)ncnc3cc2OC)CC1 [Poziotinib]
IC50 [1]: 0.00123 µM

COc1cc2ncnc(Nc3ccc(F)c(Cl)c3)c2cc1NC(=O)/C=C/CN1CCCCC1 [Dacomitinib]
IC50 [1]: 0.0221 µM

CN1CCC(COc2cnc(-c3cccc(Cn4nc(-c5cccc(C#N)c5)ccc4=O)c3)nc2)CC1 [Tepotinib]
Response according to TMRE marker [3]: do not respond | Response according to annexin V marker [3]: do not respond | Response according to the Sytox blue marker [3]: do not respond | effect on pFAK and pAKT population distributions ([4]; single agent): no detectable dose-dependent effect | Response according to TMRE marker [5]: do not respond | Response according to annexin V marker [5]: do not respond | Response according to the Sytox blue marker [5]: do not respond | Response according to Sytox Blue, annexin V and TMRE markers [7]: do not respond | Response according to Sytox Blue, annexin V and TMRE markers [10]: do not respond | Tumor reduction, drug arm versus control [11]: 10% (p = 0.780) | Adverse observations in treated cohort ([11]; oral gavage QD, Tepotinib 50 mg/kg, Neratinib + Tepotinib 40 + 50 mg/kg): ^#Due to weight loss, 1 mouse given 3 day dose holiday due, and 1 mouse given 7 day dose holiday

C#Cc1cccc(Nc2ncnc3cc(OCCOC)c(OCCOC)cc23)c1 [Erlotinib]
HER/c-met inhibition (%) [6]: 9.2 ± 10.3 (n = 2) % | inhibition at 0.5 µM [2, 13]: 15% | inhibition at 0.5 µM [2, 14]: 7% | inhibition at 0.5 µM [2, 15]: 38% | Tumor reduction, drug arm versus control [11]: 5% (p = 0.870)

CS(=O)(=O)CCNCc1ccc(-c2ccc3ncnc(Nc4ccc(OCc5cccc(F)c5)c(Cl)c4)c3c2)o1 [Lapatinib]
IC50 [1]: 0.137 µM
